Numbered stars: 1 amine (or outer) side, 2 acyl side, 3 side chain; on linkers, the order of the positions; unused ones are H or OH. Bridge positions count the residues as written; N and C are the ends. Square brackets hold non-standard residues; d marks the D form. Peptide text beside a SMILES is read from it. * marks the point of attachment. X33 = O=C([C@H](Cc1ccc(-c2cccc(Cl)c2)cc1)N[*:1])[*:2]; Bip = N[C@@H](Cc1ccc(-c2ccccc2)cc1)C(=O)O; Phe(3-Me) = Cc1cccc(C[C@H](N)C(=O)O)c1; Val(3-OH) = CC(C)(O)[C@H](N)C(=O)O; 2Pal = N[C@@H](Cc1ccccn1)C(=O)O; 4Pal = N[C@@H](Cc1ccncc1)C(=O)O; Cha = N[C@@H](CC1CCCCC1)C(=O)O; Cit = NC(=O)NCCC[C@H](N)C(=O)O; dNva = CCC[C@@H](N)C(=O)O; Carboxymethyl = O=C(O)C*; NMeA = CN[C@@H](C)C(=O)O; Nle = CCCC[C@H](N)C(=O)O; Orn = NCCC[C@H](N)C(=O)O; Dab = NCC[C@H](N)C(=O)O; Nva = CCC[C@H](N)C(=O)O
What follows are molecules tested against T1, PE-labeled human PD-L1-Ig binding to Jurkat cell line over-expressing human PD-1 (Jurkat-PD-1) (Homo sapiens, UniProt Q15116) (assay: Jurkat-PD-1 Cell Binding High-Content Screening Assay (CBA): Method 1). Settings: Jurkat-hPD-1 cells, PE-labeled PD-L1-Ig 20 nM final; read-out: Jurkat HPDL1 PD1 IC50 (uM) (Method 1).
T1 construct: expressed in transfected cells; host or cells: Jurkat
T1 sequence (Q15116 25-288): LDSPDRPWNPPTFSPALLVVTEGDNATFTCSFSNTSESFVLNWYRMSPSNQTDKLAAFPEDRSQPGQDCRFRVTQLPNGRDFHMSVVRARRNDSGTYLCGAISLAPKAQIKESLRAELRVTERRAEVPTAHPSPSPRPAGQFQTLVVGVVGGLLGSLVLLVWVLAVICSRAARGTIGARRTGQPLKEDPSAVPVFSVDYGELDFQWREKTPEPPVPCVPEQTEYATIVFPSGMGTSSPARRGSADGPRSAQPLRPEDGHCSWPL

SMILES	IC50
CC(C)C[C@@H]1NC(=O)[C@H](CCN)NC(=O)[C@@H](CC(C)C)NC(=O)[C@H](C)N(C)C(=O)[C@H](CCCNC(N)=O)NC(=O)[C@H](Cc2ccc(-c3ccccc3)cc2)NC(=O)[C@H](C(C)C)NC(=O)[C@H](Cc2c[nH]c3ccccc23)NC(=O)[C@H](CC(=O)O)NC(=O)[C@H](Cc2ccc(O)cc2)NC(=O)[C@H](Cc2ccccn2)NC(=O)CSC[C@@H](C(=O)N[C@@H](C)C(N)=O)NC(=O)[C@H]([C@@H](C)O)NC(=O)[C@H](C(C)C)NC1=O [Compound 1327] ({CH2CO}-[2Pal]YDWV[Bip][Cit][NMeA][dL][Dab]LVTCA-NH2; thioether N-14)	0.08 µM
CCC[C@@H]1NC(=O)[C@H](CCCNC(=N)N)NC(=O)[C@@H](CC(C)C)NC(=O)[C@H](C)N(C)C(=O)[C@H](CCCNC(=N)N)NC(=O)[C@H](Cc2ccc(-c3ccccc3)cc2)NC(=O)[C@H](C(C)C)NC(=O)[C@H](Cc2c[nH]c3ccccc23)NC(=O)[C@H](CC(=O)O)NC(=O)[C@H](Cc2ccc(O)cc2)NC(=O)[C@H](Cc2ccccc2)NC(=O)CSC[C@@H](C(=O)N[C@@H](C)C(N)=O)NC(=O)[C@H]([C@@H](C)O)NC(=O)[C@H](C(C)C)NC1=O [Compound 1113] ({CH2CO}-FYDWV[Bip]R[NMeA][dL]R[Nva]VTCA-NH2; thioether N-14)	0.14 µM
CC[C@H](C)[C@@H]1NC(=O)[C@H](Cc2ccc(-c3ccccc3)cc2)NC(=O)[C@H](C(C)(C)O)NC(=O)[C@H](Cc2cccc(C)c2)NC(=O)[C@H](CC(=O)O)NC(=O)[C@H](Cc2ccc(O)cc2)NC(=O)[C@H](CC(N)=O)NC(=O)CSC[C@@H](C(=O)N[C@@H](CCN)C(N)=O)NC(=O)[C@H](CCC(=O)O)NC(=O)[C@H](C(C)C)NC(=O)[C@H](CC2CCCCC2)NC(=O)[C@H](CCN)NC(=O)[C@@H](CC(C)C)NC(=O)[C@H](C)N(C)C1=O [Compound 1697] ({CH2CO}-NYD[Phe(3-Me)][Val(3-OH)][Bip]I[NMeA][dL][Dab][Cha]VEC[Dab]-NH2; thioether N-14)	0.02 µM
CC[C@H](C)[C@@H]1NC(=O)[C@H](Cc2ccc(-c3ccccc3)cc2)NC(=O)[C@H](C(C)(C)O)NC(=O)[C@H](Cc2cccc(C)c2)NC(=O)[C@H](CC(=O)O)NC(=O)[C@H](Cc2ccc(O)cc2)NC(=O)[C@H](CC(N)=O)NC(=O)CSC[C@@H](C(=O)N[C@@H](CCN)C(N)=O)NC(=O)[C@H](CCC(=O)O)NC(=O)[C@H](C(C)(C)O)NC(=O)[C@H](CC2CCCCC2)NC(=O)[C@H](CCN)NC(=O)[C@@H](CC(C)C)NC(=O)[C@H](C)N(C)C1=O [Compound 1699] ({CH2CO}-NYD[Phe(3-Me)][Val(3-OH)][Bip]I[NMeA][dL][Dab][Cha][Val(3-OH)]EC[Dab]-NH2; thioether N-14)	0.04 µM
CCCC[C@@H]1NC(=O)[C@H](CCCNC(=N)N)NC(=O)[C@@H](CC(C)C)NC(=O)[C@H](C)N(C)C(=O)[C@H](C(C)C)NC(=O)[C@H](Cc2ccc(-c3ccccc3)cc2)NC(=O)[C@H](C(C)C)NC(=O)[C@H](Cc2c[nH]c3ccccc23)NC(=O)[C@H](CC(=O)O)NC(=O)[C@H](Cc2ccc(O)cc2)NC(=O)[C@H](Cc2ccc(OCC(=O)O)cc2)NC(=O)CSC[C@@H](C(=O)N[C@@H](C)C(N)=O)NC(=O)[C@H]([C@@H](C)O)NC(=O)[C@H](C(C)C)NC1=O [Compound 1501] ({CH2CO}-Y(Carboxymethyl)YDWV[Bip]V[NMeA][dL]R[Nle]VTCA-NH2; thioether N-14)	0.08 µM
CC(C)C[C@@H]1NC(=O)[C@H](Cc2c[nH]c3ccccc23)NC(=O)[C@H](CC(=O)O)NC(=O)[C@H](Cc2ccc(O)cc2)NC(=O)[C@H](Cc2ccccc2)NC(=O)CSC[C@@H](C(=O)N[C@@H](C)C(N)=O)NC(=O)[C@H](CO)NC(=O)[C@H](C(C)C)NC(=O)[C@H](CC(C)C)NC(=O)[C@H](CC(N)=O)NC(=O)[C@@H](C)NC(=O)[C@H](C)N(C)C(=O)[C@H](C(C)C)NC(=O)[C@H](Cc2ccc(-c3cccc(Cl)c3)cc2)NC1=O [Compound 1774] ({CH2CO}-FYDWL[X33]V[NMeA][dA]NLVSCA-NH2; thioether N-14)	0.05 µM
CC(C)C[C@H]1NC(=O)[C@H](C)N(C)C(=O)[C@H](CCCNC(N)=O)NC(=O)[C@H](Cc2ccc(-c3ccccc3)cc2)NC(=O)[C@H](C(C)C)NC(=O)[C@H](Cc2c[nH]c3ccccc23)NC(=O)[C@H](CC(=O)O)NC(=O)[C@H](Cc2ccc(O)cc2)NC(=O)[C@H](Cc2ccc(OCC(=O)O)cc2)NC(=O)CSC[C@@H](C(=O)N[C@@H](C)C(N)=O)NC(=O)[C@H]([C@@H](C)O)NC(=O)[C@H](C(C)C)NC(=O)[C@H](CC2CCCCC2)NC(=O)[C@H](CCCNC(=N)N)NC1=O [Compound 1504] ({CH2CO}-Y(Carboxymethyl)YDWV[Bip][Cit][NMeA][dL]R[Cha]VTCA-NH2; thioether N-14)	0.02 µM
CC(C)C[C@@H]1NC(=O)[C@H](Cc2c[nH]c3ccccc23)NC(=O)[C@H](CC(=O)O)NC(=O)[C@H](Cc2ccc(O)cc2)NC(=O)[C@H](Cc2ccccc2)NC(=O)CSC[C@@H](C(=O)NCC(N)=O)NC(=O)[C@H](CO)NC(=O)[C@H](C(C)C)NC(=O)[C@H](CC(C)C)NC(=O)[C@H](CC(=O)O)NC(=O)[C@H](CC(C)C)NC(=O)[C@H](C)N(C)C(=O)[C@H](C(C)C)NC(=O)[C@H](Cc2ccc(-c3ccccc3)cc2)NC1=O [Compound 1824] ({CH2CO}-FYDWL[Bip]V[NMeA]LDLVSCG-NH2; thioether N-14)	0.63 µM
CC(C)C[C@@H]1NC(=O)[C@H](CCN)NC(=O)[C@@H](CC(C)C)NC(=O)[C@H](C)N(C)C(=O)[C@H](CCCNC(=N)N)NC(=O)[C@H](Cc2ccc(-c3ccccc3)cc2)NC(=O)[C@H](C(C)C)NC(=O)[C@H](Cc2c[nH]c3ccccc23)NC(=O)[C@H](CC(=O)O)NC(=O)[C@H](Cc2ccc(O)cc2)NC(=O)[C@H](Cc2cnc[nH]2)NC(=O)CSC[C@@H](C(=O)N[C@@H](C)C(N)=O)NC(=O)[C@H]([C@@H](C)O)NC(=O)[C@H](C(C)C)NC1=O [Compound 1051] ({CH2CO}-HYDWV[Bip]R[NMeA][dL][Dab]LVTCA-NH2; thioether N-14)	0.15 µM
CCNC(=O)[C@H](CCN)NC(=O)[C@@H]1CSCC(=O)N[C@@H](Cc2ccc(OCC(=O)O)cc2)C(=O)N[C@@H](Cc2ccc(OCC(=O)O)cc2)C(=O)N[C@@H](CC(=O)O)C(=O)N[C@@H](Cc2cccc(C)c2)C(=O)N[C@@H](C(C)C)C(=O)N[C@@H](Cc2ccc(-c3ccccc3)cc2)C(=O)N[C@@H](Cc2ccc(O)cc2)C(=O)N(C)[C@@H](C)C(=O)N[C@H](CC(C)C)C(=O)N[C@@H](CCN)C(=O)N[C@@H](CC2CCCCC2)C(=O)N[C@@H](C(C)C)C(=O)N[C@@H](CCCN)C(=O)N1 [Compound 1870] ({CH2CO}-Y(Carboxymethyl)Y(Carboxymethyl)D[Phe(3-Me)]V[Bip]Y[NMeA][dL][Dab][Cha]V[Orn]C[Dab]-NHEt; thioether N-14)	0.01 µM
CC(C)C[C@@H]1NC(=O)[C@H](CCCNC(=N)N)NC(=O)[C@@H](CC(C)C)NC(=O)[C@H](C)N(C)C(=O)[C@H](CCCNC(N)=O)NC(=O)[C@H](Cc2ccc(-c3ccccc3)cc2)NC(=O)[C@H](C(C)C)NC(=O)[C@H](Cc2c[nH]c3ccccc23)NC(=O)[C@H](CC(=O)O)NC(=O)[C@H](Cc2ccc(O)cc2)NC(=O)[C@H](CC(N)=O)NC(=O)CSC[C@@H](C(=O)NCC(N)=O)NC(=O)[C@H](CO)NC(=O)[C@H](C(C)C)NC1=O [Compound 1246] ({CH2CO}-NYDWV[Bip][Cit][NMeA][dL]RLVSCG-NH2; thioether N-14)	0.05 µM
CCC[C@H]1NC(=O)[C@H](C)N(C)C(=O)[C@H](CCCNC(=N)N)NC(=O)[C@H](Cc2ccc(-c3ccccc3)cc2)NC(=O)[C@H](C(C)C)NC(=O)[C@H](Cc2c[nH]c3ccccc23)NC(=O)[C@H](CC(=O)O)NC(=O)[C@H](Cc2ccc(O)cc2)NC(=O)[C@H](Cc2ccccc2)NC(=O)CSC[C@@H](C(=O)N[C@@H](C)C(N)=O)NC(=O)[C@H]([C@@H](C)O)NC(=O)[C@H](C(C)C)NC(=O)[C@H](CC(C)C)NC(=O)[C@H](CCCNC(=N)N)NC1=O [Compound 1064] ({CH2CO}-FYDWV[Bip]R[NMeA][dNva]RLVTCA-NH2; thioether N-14)	0.1 µM
CC(C)C[C@@H]1NC(=O)[C@H](Cc2c[nH]c3ccccc23)NC(=O)[C@H](CC(=O)O)NC(=O)[C@H](Cc2ccc(O)cc2)NC(=O)[C@H](Cc2ccccc2)NC(=O)CSC[C@@H](C(=O)N[C@@H](C)C(N)=O)NC(=O)[C@H](CO)NC(=O)[C@H](CCN)NC(=O)[C@H](CC(C)C)NC(=O)[C@H](CC(N)=O)NC(=O)[C@@H](C)NC(=O)[C@H](C)N(C)C(=O)[C@H](C(C)C)NC(=O)[C@H](Cc2ccc(-c3ccccc3)cc2)NC1=O [Compound 1531] ({CH2CO}-FYDWL[Bip]V[NMeA][dA]NL[Dab]SCA-NH2; thioether N-14)	0.11 µM
Cc1cccc(C[C@@H]2NC(=O)[C@H](CC(=O)O)NC(=O)[C@H](Cc3ccc(O)cc3)NC(=O)[C@H](CC(N)=O)NC(=O)CSC[C@@H](C(=O)N[C@@H](C)C(N)=O)NC(=O)[C@H]([C@@H](C)O)NC(=O)[C@H](C(C)C)NC(=O)[C@H](CC(C)C)NC(=O)[C@H](CCN)NC(=O)[C@@H](CC(C)C)NC(=O)[C@H](C)N(C)C(=O)[C@H](CCCNC(N)=O)NC(=O)[C@H](Cc3ccc(-c4ccccc4)cc3)NC(=O)[C@H](C(C)C)NC2=O)c1 [Compound 1230] ({CH2CO}-NYD[Phe(3-Me)]V[Bip][Cit][NMeA][dL][Dab]LVTCA-NH2; thioether N-14)	0.01 µM
CC(C)C[C@H]1NC(=O)[C@H](C)N(C)C(=O)[C@H](CCCCN)NC(=O)[C@H](Cc2ccc(-c3ccccc3)cc2)NC(=O)[C@H](C(C)C)NC(=O)[C@H](Cc2c[nH]c3ccccc23)NC(=O)[C@H](CC(=O)O)NC(=O)[C@H](Cc2ccncc2)NC(=O)[C@H](Cc2ccc(OCC(=O)O)cc2)NC(=O)CSC[C@@H](C(N)=O)NC(=O)[C@H](CO)NC(=O)[C@H](C(C)C)NC(=O)[C@H](CC2CCCCC2)NC(=O)[C@H](CC(N)=O)NC1=O [Compound 2244] ({CH2CO}-Y(Carboxymethyl)[4Pal]DWV[Bip]K[NMeA][dL]N[Cha]VSC-NH2; thioether N-14)	0.04 µM

Reference: patent publication US20240409585A1, “MACROCYCLIC IMMUNOMODULATORS” (priority 2021, published 2024)
